Reference: patent publication US20240108006A1, “PESTICIDALLY ACTIVE HETEROAROMATIC COMPOUNDS” (SYNGENTA CROP PROTECTION AG, priority 2021, published 2024)

Key:
Format in all cases: in vivo
Plutella xylostella = assay: Example B8: Plutella xylostella (diamond back moth), artificial diet 24-well, eggs; settings: 192 h, application rate of 200 ppm, 8 days after infestation, read-out: effect in at least one of the two categories (mortality or growth inhibition)
Experimental: Example B8: Plutella xylostella (Diamond Back Moth)
24-well microtiter plates with artificial diet were treated with aqueous test solutions prepared from 10,000 ppm DMSO stock solutions by pipetting. After drying, Plutella eggs were pipetted through a plastic stencil onto a gel blotting paper and the plate was closed with it. The samples were assessed for mortality and growth inhibition in comparison to untreated samples 8 days after infestation.
The following compounds gave an effect of at least 80% in at least one of the two categories (mortality or growth inhibition) at an application rate of 200 ppm: […]

Spodoptera littoralis = assay: Example B9: Spodoptera littoralis (Egyptian cotton leaf worm), cotton leaf discs, L1 larvae; settings: foliar, 72 h, application rate of 200 ppm, 3 days after infestation, read-out: control in at least one of the three categories (mortality, anti-feedant effect, or growth inhibition)
Experimental: Example B9: Spodoptera littoralis (Egyptian Cotton Leaf Worm)
Cotton leaf discs were placed onto agar in 24-well microtiter plates and sprayed with aqueous test solutions prepared from 10,000 ppm DMSO stock solutions. After drying the leaf discs were infested with five L1 larvae. The samples were assessed for mortality, anti-feeding effect, and growth inhibition in comparison to untreated samples 3 days after infestation. Control of Spodoptera littoralis by a test sample is given when at least one of the categories mortality, anti-feedant effect, and growth inhibition is higher than the untreated sample.

Chilo suppressalis = assay: Example B1: Chilo suppressalis (striped rice stemborer), artificial diet, L2 larvae; settings: 144 h, application rate of 200 ppm, 6 days after infestation, read-out: control in at least one of the three categories (mortality, anti-feedant effect, or growth inhibition)
Experimental: Example B1: Chilo suppressalis (Striped Rice Stemborer)
24-well microtiter plates with artificial diet were treated with aqueous test solutions prepared from 10,000 ppm DMSO stock solutions by pipetting. After drying, the plates were infested with L2 larvae (6-8 per well). The samples were assessed for mortality, anti-feeding effect, and growth inhibition in comparison to untreated samples 6 days after infestation. Control of Chilo suppressalis by a test sample is given when at least one of the categories mortality, anti-feedant effect, and growth inhibition is higher than the untreated sample.

| Structure (SMILES) | percent effect (mortality or growth inhibition) at 200 ppm (Plutella xylostella) [%] | percent control (mortality, anti-feedant effect or growth inhibition) at 200 ppm (Spodoptera littoralis) [%] | percent control (mortality, anti-feedant effect or growth inhibition) at 200 ppm (Chilo suppressalis) [%] |
| --- | --- | --- | --- |
| C[C@H](NC(=O)Nc1cc(Oc2ccc(C(F)(F)F)cn2)c(Cl)cc1Cl)c1ncnn1-c1ncccn1 [Example P209, 1-[2,4-dichloro-5-[[5-(trifluoromethyl)-2-pyridyl]oxy]phenyl]-3-[(1S)-1-(2-pyrimidin-2-yl-1,2,4-triazol-3-yl)ethyl]urea] | ≥ 80 | ≥ 80 |  |
| C[C@H](NC(=O)N1CCc2cc(Br)ccc21)c1ncnn1-c1ncccn1 [Example P102, 5-bromo-N-[(1S)-1-(2-pyrimidin-2-yl-1,2,4-triazol-3-yl)ethyl]indoline-1-carboxamide] |  | ≥ 80 |  |
| C[C@H](NC(=O)Nc1ccc(Br)cc1OC(F)F)c1ncnn1-c1ccc(C#N)cn1 [Example P254, 1-[4-bromo-2-(difluoromethoxy)phenyl]-3-[(1S)-1-[2-(5-cyano-2-pyridyl)-1,2,4-triazol-3-yl]ethyl]urea] | ≥ 80 | ≥ 80 |  |
| CC(NC(=O)Nc1cnc(Br)cc1Br)c1nccnc1-n1nccn1 (stereo not drawn) [Example P262, 1-(4,6-dibromo-3-pyridyl)-3-[1-[3-(triazol-2-yl)pyrazin-2-yl]ethyl]urea] |  | ≥ 80 |  |
| C[C@H](NC(=O)Nc1cc(Br)c(C(F)(F)F)cc1F)c1ncnn1-c1ncccn1 [Example P350, 1-[5-bromo-2-fluoro-4-(trifluoromethyl)phenyl]-3-[(1S)-1-(2-pyrimidin-2-yl-1,2,4-triazol-3-yl)ethyl]urea] |  | ≥ 80 | ≥ 80 |
| C[C@H](NC(=O)Nc1cc(Cl)c(Oc2ncc(C(F)(F)F)cc2Cl)c(Cl)c1)c1ncnn1-c1ncccn1 [Example P26, 1-[3,5-dichloro-4-[[3-chloro-5-(trifluoromethyl)-2-pyridyl]oxy]phenyl]-3-[(1S)-1-(2-pyrimidin-2-yl-1,2,4-triazol-3-yl)ethyl]urea] | ≥ 80 | ≥ 80 |  |
| C[C@H](NC(=O)Nc1ccc(Cl)c(C(F)(F)F)c1)c1nccnc1-c1ncccn1 [Example P11, 1-[4-chloro-3-(trifluoromethyl)phenyl]-3-[(1S)-1-(3-pyrimidin-2-ylpyrazin-2-yl)ethyl]urea] | ≥ 80 | ≥ 80 |  |
| CC(NC(=S)Nc1cc(C(F)(F)F)cc(C(F)(F)F)c1)c1ncnn1-c1ncccn1 (stereo not drawn) [Example P3, 1-[3,5-bis(trifluoromethyl)phenyl]-3-[1-(2-pyrimidin-2-yl-1,2,4-triazol-3-yl)ethyl]thiourea] |  | ≥ 80 |  |
| COC(=O)c1cc2c(cc1NC(=O)N[C@@H](C)c1ncnn1-c1ncccn1)OC(F)(F)O2 [Example P369, methyl 2,2-difluoro-6-[[(1S)-1-(2-pyrimidin-2-yl-1,2,4-triazol-3-yl)ethyl]carbamoylamino]-1,3-benzodioxole-5-carboxylate] | ≥ 80 | ≥ 80 |  |
| COc1cc(F)c(F)cc1NC(=O)N[C@@H](C)c1ncnn1-c1ncccn1 [Example P383, 1-(4,5-difluoro-2-methoxy-phenyl)-3-[(1S)-1-(2-pyrimidin-2-yl-1,2,4-triazol-3-yl)ethyl]urea] |  | ≥ 80 | ≥ 80 |
| C[C@H](NC(=S)Nc1ccc(Cl)c(C(F)(F)F)c1)c1ncnn1-c1ncccn1 [Example P15, 1-[4-chloro-3-(trifluoromethyl)phenyl]-3-[(1S)-1-(2-pyrimidin-2-yl-1,2,4-triazol-3-yl)ethyl]thiourea] |  | ≥ 80 | ≥ 80 |
| CC(NC(=O)Nc1cnc(Br)cc1Br)c1nccnc1-c1ncccn1 (stereo not drawn) [Example P242, 1-(4,6-dibromo-3-pyridyl)-3-[1-(3-pyrimidin-2-ylpyrazin-2-yl)ethyl]urea] |  | ≥ 80 | ≥ 80 |
| C#CCOc1cc(NC(=O)N[C@@H](C)c2ncnn2-c2ncccn2)c(F)cc1Br [Example P203, 1-(4-bromo-2-fluoro-5-prop-2-ynoxy-phenyl)-3-[(1S)-1-(2-pyrimidin-2-yl-1,2,4-triazol-3-yl)ethyl]urea] | ≥ 80 | ≥ 80 |  |
| Cc1cc(Cl)c(Cl)cc1NC(=O)N[C@@H](C)c1ncnn1-c1ncccn1 [Example P191, 1-(4,5-dichloro-2-methyl-phenyl)-3-[(1S)-1-(2-pyrimidin-2-yl-1,2,4-triazol-3-yl)ethyl]urea] | ≥ 80 | ≥ 80 |  |
| C[C@H](NC(=O)Nc1ccc(Cl)c(C(F)(F)F)c1)c1ncnn1-c1ncccn1 [Example P131, 1-[4-chloro-3-(trifluoromethyl)phenyl]-3-[(1S)-1-(2-pyrimidin-2-yl-1,2,4-triazol-3-yl)ethyl]urea] |  | ≥ 80 | ≥ 80 |
| C[C@H](NC(=O)Nc1cc(Cl)c(Br)cc1F)c1ncnn1-c1ncccn1 [Example P373, 1-(4-bromo-5-chloro-2-fluoro-phenyl)-3-[(1S)-1-(2-pyrimidin-2-yl-1,2,4-triazol-3-yl)ethyl]urea] |  | ≥ 80 | ≥ 80 |
| C[C@H](NC(=O)Nc1cc(Cl)c(OC(F)(F)C(F)Br)cc1Cl)c1ncnn1-c1ncccn1 (stereo partly drawn) [Example P197, 1-[4-(2-bromo-1,1,2-trifluoro-ethoxy)-2,5-dichloro-phenyl]-3-[(1S)-1-(2-pyrimidin-2-yl-1,2,4-triazol-3-yl)ethyl]urea] |  | ≥ 80 |  |
| C[C@H](NC(=O)Nc1ccc(Cl)c(Cl)c1Cl)c1ncnn1-c1ncccn1 [Example P95, 1-[(1S)-1-(2-pyrimidin-2-yl-1,2,4-triazol-3-yl)ethyl]-3-(2,3,4-trichlorophenyl)urea] |  | ≥ 80 |  |
| C[C@H](NC(=O)Nc1cc2c(cc1Cl)OCO2)c1ncnn1-c1ncccn1 [Example P370, 1-(6-chloro-1,3-benzodioxol-5-yl)-3-[(1S)-1-(2-pyrimidin-2-yl-1,2,4-triazol-3-yl)ethyl]urea] |  | ≥ 80 | ≥ 80 |
| COc1cc(OC)c(NC(=O)N[C@@H](C)c2ncnn2-c2ncccn2)cc1Cl [Example P387, 1-(5-chloro-2,4-dimethoxy-phenyl)-3-[(1S)-1-(2-pyrimidin-2-yl-1,2,4-triazol-3-yl)ethyl]urea] |  | ≥ 80 |  |
| C[C@H](NC(=O)Nc1cc(Br)c(F)cc1F)c1ncnn1-c1ncccn1 [Example P343, 1-(5-bromo-2,4-difluoro-phenyl)-3-[(1S)-1-(2-pyrimidin-2-yl-1,2,4-triazol-3-yl)ethyl]urea] |  | ≥ 80 | ≥ 80 |
